Results on three compounds are retold here after patent publication US20240240226A1, “FLUOROGENIC ASSAY FOR RAPID SCREENING OF BACTERIAL BETA-LACTAMASE ACTIVITY” (The Board of Trustees of the Leland Stanford Junior …, priority 2021, published 2024).

The structures appear in SMILES notation.

In data set [1] the target is T1, horseradish peroxidase (HRP) (Armoracia rusticana, UniProt P00433).
T1 sequence (P00433 31-338): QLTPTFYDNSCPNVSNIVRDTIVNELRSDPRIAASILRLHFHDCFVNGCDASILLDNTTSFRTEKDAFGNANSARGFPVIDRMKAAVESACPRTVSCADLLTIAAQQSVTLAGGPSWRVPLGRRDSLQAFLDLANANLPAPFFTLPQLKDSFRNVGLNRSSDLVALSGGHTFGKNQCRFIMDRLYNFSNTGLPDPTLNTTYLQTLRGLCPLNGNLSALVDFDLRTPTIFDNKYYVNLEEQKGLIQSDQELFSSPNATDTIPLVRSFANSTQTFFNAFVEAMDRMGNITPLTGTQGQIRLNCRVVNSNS
The data set can be described thus: Amplex red fluorescence turn-on with HRP and H2O2. The format is biochemical. The note with it: HRP 1 unit/mL, H2O2 1 uM, 10 μM AR in PBS, room temperature, 5 min. The method, then:
FIG. 6 illustrates the fluorescence spectra of CDA and Amplex red. a) Fluorescent emission spectra of PBS, CDA, and AR (10 μM probes in PBS; excitation, 525 nm). b) Fluorescent emission spectra of CDA treated with esterase (1 μg/mL), TEM-1 Bla (100 nM) and H2O2 (1 mM) at room temperature for 8 hours. c) Fluorescent emission spectra of AR and AR treated with HRP and H2O2 at room temperature for 5 min (10 μM AR in PBS, HRP 1 unit/mL, H2O2 1 uM) (excitation, 525 nm). A.U. indicates arbitrary units.
The synthesis of CDA is outlined in Scheme 1 (FIG. 28). DARR was prepared from resazurin sodium salt through reduction and acetylation (Han et al., Chemistry (2016) 11: 818-822) and conjugated to the oxidized cephalosporin chloride with a self-immolative linker 4-mercaptobenzyl alcohol to afford CDA after reduction and deprotection. When incubated with a recombinant class A cephalosporin-hydrolyzing β-lactamase TEM-1 (TEM-1 Bla, FIGS. 7 and 8), esterase, and hydrogen peroxide (H2O2), CDA generated approximately 1200-fold fluorescence turn-on (FIGS. 1b and 6b).

The next data set deals with esterase. The data set can be described thus: DARR response to esterase and H2O2. The format is biochemical. The note with it: esterase 1 μg/mL, different concentrations of H2O2, room temperature. How it is done: FIG. 11 illustrates that esterase sensitizes DARR in response to H2O2. a) Structure of DARR and its hydrolysis by esterase and oxidation into fluorescent resorufin by H2O2. b) Fluorescence enhancement of DARR treated with esterase (1 μg/mL) and different concentrations of H2O2 at room temperature. Data were collected on a Tecan Safire microplate reader with excitation at 570 nm and emission at 600 nm. A.U. indicates arbitrary units.
As oxidation is the essential step in converting β-lactamase/esterase processed CDA to resorufin, the stability of CDA was evaluated in different concentrations of H2O2 (FIG. 2a). […] The sulfur center of CDA was also stable in H2O2 (1 mM) (FIG. 9).

For data set [2] the following is noted: pH=8; cited from earlier work.

On to `CC(=O)N1c2ccc(O)cc2Oc2cc(O)ccc21` [Amplex red, 10-Acetyl-3,7-dihydroxyphenoxazine], for which the fluorescence turn-on in data set [1] was determined as 413 fold.
In the case of `CC(=O)Oc1ccc2c(c1)Oc1cc(OC(C)=O)ccc1N2` [DARR, 10H-phenoxazine-3,7-diyl diacetate], in the data set with esterase, the response to esterase entry is “fast response to esterase”.
As to `O=c1ccc2nc3ccc(O)cc3oc-2c1` [resorufin], the “fluorescence quantum yield ϕ” value in data set [2] is 0.75.
